32 compounds from ChEMBL document CHEMBL1137849, “Rational design of 6-methylsulfonylindoles as selective cyclooxygenase-2 inhibitors” (Bioorg Med Chem Lett, 2004) can be followed below.

For orientation: IC50 means the concentration needed to halve the response being measured. Lower therefore signals higher potency. One may read the AUC as concentration integrated over time. Low values mean low exposure, high ones high exposure. A word on the half-life: it is the time in which the quantity being followed falls by half. A lower half-life goes with fast loss.

Data set [1] in a line: In vitro inhibitory concentration against Prostaglandin G/H synthase 1 enzyme activity.
The target of data set [2] is T1, Prostaglandin G/H synthase 2 (Homo sapiens, UniProt P35354).
T1 sequence (P35354 whole entry): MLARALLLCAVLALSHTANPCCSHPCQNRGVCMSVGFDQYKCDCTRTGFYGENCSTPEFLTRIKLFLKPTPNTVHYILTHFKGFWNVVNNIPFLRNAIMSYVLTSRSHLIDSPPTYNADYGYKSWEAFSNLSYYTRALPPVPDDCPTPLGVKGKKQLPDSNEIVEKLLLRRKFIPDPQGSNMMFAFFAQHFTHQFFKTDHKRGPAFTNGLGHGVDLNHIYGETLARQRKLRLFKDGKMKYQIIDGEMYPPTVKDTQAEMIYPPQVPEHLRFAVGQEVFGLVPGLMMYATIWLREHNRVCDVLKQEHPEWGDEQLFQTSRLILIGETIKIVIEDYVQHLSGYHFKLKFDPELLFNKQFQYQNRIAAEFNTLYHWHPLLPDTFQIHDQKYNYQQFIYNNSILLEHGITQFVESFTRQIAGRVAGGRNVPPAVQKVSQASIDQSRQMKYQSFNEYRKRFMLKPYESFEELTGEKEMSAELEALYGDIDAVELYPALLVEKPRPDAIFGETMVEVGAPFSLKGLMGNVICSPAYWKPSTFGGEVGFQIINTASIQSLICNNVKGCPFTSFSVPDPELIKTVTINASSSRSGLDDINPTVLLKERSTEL
Briefly: In vitro inhibitory concentration against Prostaglandin G/H synthase 2 enzyme activity.

The target of data set [3] is T2, Prostaglandin G/H synthase 1 (Homo sapiens, UniProt P23219). Briefly: Inhibitory concentration against human whole blood Prostaglandin G/H synthase 1 enzyme activity.
T2 sequence (P23219 whole entry): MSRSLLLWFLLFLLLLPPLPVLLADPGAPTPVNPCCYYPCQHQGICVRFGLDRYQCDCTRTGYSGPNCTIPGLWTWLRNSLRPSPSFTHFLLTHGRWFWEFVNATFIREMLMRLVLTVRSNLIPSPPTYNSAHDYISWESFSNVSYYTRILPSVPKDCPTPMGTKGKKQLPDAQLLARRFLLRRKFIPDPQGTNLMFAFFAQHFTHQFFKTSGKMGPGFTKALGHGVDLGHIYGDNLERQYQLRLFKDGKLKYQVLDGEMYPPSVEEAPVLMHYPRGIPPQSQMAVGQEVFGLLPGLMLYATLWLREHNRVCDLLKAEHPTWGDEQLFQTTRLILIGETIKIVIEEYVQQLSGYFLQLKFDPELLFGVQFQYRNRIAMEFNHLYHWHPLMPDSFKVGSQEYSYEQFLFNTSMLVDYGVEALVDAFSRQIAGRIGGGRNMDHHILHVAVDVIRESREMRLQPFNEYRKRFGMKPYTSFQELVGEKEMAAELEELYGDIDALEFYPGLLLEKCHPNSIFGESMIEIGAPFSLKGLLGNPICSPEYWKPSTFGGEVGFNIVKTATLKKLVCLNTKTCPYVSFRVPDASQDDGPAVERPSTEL
Data set [4] addresses T1, Prostaglandin G/H synthase 2. The data set is described as follows: Inhibitory concentration against human whole blood Prostaglandin G/H synthase 2 enzyme activity was determined.
For data set [5], the target named is T2, Prostaglandin G/H synthase 1. Briefly: Inhibitory concentration against human whole blood Prostaglandin G/H synthase 1.
Data set [6] is described as follows: Area under curve plasma concentration of compound in rat when administered perorally at 10 mg/kg dose. Format: ADME, organism-based. Also on record: dose 10 mg/kg, route oral. The conditions noted are these: in vivo, po.
A short description of data set [7]: Plasma half life of compound was determined in rat. Type of data set: ADME.
The nature of data set [8]: In vitro inhibitory concentration against Prostaglandin G/H synthase 1.

Where only a bound is given, the exact number is not on record here.

On to `Cc1[nH]c2cc(S(C)(=O)=O)ccc2c1Oc1ccc(Cl)cc1Cl`, for which the half-inhibitory concentration (IC50) in data set [1] is 25.8 µM; in data set [2] it was 0.11 µM; in data set [3] it was 33 µM; in data set [4] it was 4.1 µM.

For the compound `COc1ccc(Cc2c(C)[nH]c3cc(S(C)(=O)=O)ccc23)cc1`, the IC50 is above 45 µM in data set [1], 0.27 µM in data set [2], 7.3 µM in data set [3] and 5.1 µM in data set [4].

With `CS(=O)(=O)c1ccc2c(Sc3ccc(F)cc3F)c(C(N)=O)[nH]c2c1`, the results for the IC50 in data set [2], in data set [3] and in data set [4] were 2.24 µM, above 40 µM and above 40 µM, respectively.

As to `Cc1[nH]c2cc(S(C)(=O)=O)ccc2c1Oc1ccc(F)cc1F`, the IC50 was 39.5 µM in data set [1], 0.11 µM in data set [2], 33 µM in data set [3] and 4.1 µM in data set [4].

For `Cc1[nH]c2cc(S(C)(=O)=O)ccc2c1Oc1ccc(F)cc1`, the IC50 in data set [5] was 37 µM; in data set [1], above 40 µM; in data set [2], 0.03 µM; in data set [4], 2 µM. Besides, in data set [6], the AUC worked out at 35 µM·h. The half-life in data set [7] is 6.2 h.

Consider `COc1ccc(Oc2c(C)[nH]c3cccc(S(C)(=O)=O)c23)cc1`, for which the 50% inhibitory concentration (IC50) in data set [1] is above 30 µM; in data set [2], 0.2 µM; in data set [3] it was 6 µM; in data set [4], 1.6 µM.

As for `Cc1[nH]c2cc(S(C)(=O)=O)ccc2c1Sc1ccccn1`, the IC50 in data set [2] amounted to 1.78 µM; in data set [3] it was 30 µM; in data set [4] it was 5.2 µM.

On to `Cc1[nH]c2cc(S(C)(=O)=O)ccc2c1Cc1ccc(Cl)cc1`, for which the IC50 in data set [1] was above 40 µM; in data set [2] it was 0.26 µM; in data set [3], 71.1 µM; in data set [4], 5.6 µM.

As to `Cc1[nH]c2cc(S(C)(=O)=O)ccc2c1Sc1ccc(F)cc1`, the IC50 in data set [1] was above 40 µM; in data set [2] it was 0.02 µM; in data set [3] it was 55.7 µM; in data set [4], 2.2 µM.

For the compound `Cc1[nH]c2cc(S(C)(=O)=O)ccc2c1Cc1ccc(F)cc1F`, the half-inhibitory concentration (IC50) in data set [1] is above 40 µM; in data set [2] it was 0.26 µM; in data set [3], 98 µM; in data set [4] it was 8.4 µM. Further, the AUC in data set [6] amounted to 72 µM·h. The same compound showed a half-life in data set [7] of 4.1 h.

On to `COc1ccc(Oc2c(C)[nH]c3cc(S(C)(=O)=O)ccc23)cc1`, for which the concentration for half-maximal inhibition (IC50) in data set [1] is above 30 µM; in data set [2], 0.2 µM; in data set [3], 6 µM; in data set [4], 1.6 µM.

Turning to `Cc1[nH]c2cc(S(C)(=O)=O)ccc2c1C(=O)c1ccc(F)cc1`, the IC50 in data set [1] was determined as 100 µM; in data set [2], 0.66 µM; in data set [3] it was 2.44 µM; in data set [4], 1.72 µM.

As to `CS(=O)(=O)c1ccc2c(Sc3ccc(F)cc3)c(C(N)=O)[nH]c2c1`, the results for the IC50 in data set [2], in data set [3] and in data set [4] were 1.21 µM, above 40 µM and above 40 µM, respectively.

Take `CS(=O)(=O)Cc1[nH]c2cc(S(C)(=O)=O)ccc2c1Sc1ccccc1Cl`: the IC50 in data set [2] is above 40 µM.

For `COc1ccc(C(=O)c2c(C)[nH]c3cc(S(C)(=O)=O)ccc23)cc1`, the concentration for half-maximal inhibition (IC50) in data set [1] was above 40 µM; in data set [3], 3.5 µM; in data set [4] it was 2.6 µM.

Consider `COC(=O)c1[nH]c2cc(S(C)(=O)=O)ccc2c1Sc1ccc(F)cc1F`, for which the 50% inhibitory concentration (IC50) was 0.38 µM in data set [2], 17.2 µM in data set [3] and 0.38 µM in data set [4].

The compound `Cc1[nH]c2cc(S(C)(=O)=O)ccc2c1S(=O)(=O)c1ccc(F)cc1` came in with an IC50 in data set [2] above 40 µM.

Take `CS(=O)(=O)c1ccc2c(Sc3ccccc3Cl)c(C#N)[nH]c2c1`: the concentration for half-maximal inhibition (IC50) in data set [2] is 0.13 µM; in data set [3], above 67 µM; in data set [4], 0.57 µM. For the same compound, the exposure (AUC) in data set [6] was found to be 56 µM·h.

Turning to `Cc1[nH]c2cc(S(C)(=O)=O)ccc2c1Sc1ccc(F)cc1F`, the IC50 in data set [3] came to 18.2 µM; in data set [4] it was 0.77 µM. For the same compound, the exposure (AUC) in data set [6] was found to be 118 µM·h.

In the case of `CS(=O)(=O)c1ccc2c(Sc3ccc(F)cc3)c(C#N)[nH]c2c1`, the IC50 in data set [3] was above 125 µM; in data set [4], 2.3 µM.

In the case of `CS(=O)(=O)c1ccc2c(Sc3ccc(F)cc3)c(CO)[nH]c2c1`, the figures for the IC50 in data set [2], in data set [3] and in data set [4] were 0.42 µM, above 100 µM and 5.9 µM, respectively.

For `Cc1[nH]c2cc(S(C)(=O)=O)ccc2c1Oc1ccc(Cl)cc1`, the IC50 was found to be 30 µM in data set [1], 0.3 µM in data set [2], 12 µM in data set [3] and 3.8 µM in data set [4].

Take `CS(=O)(=O)c1ccc2c(Sc3ccc(F)cc3F)c(C#N)[nH]c2c1`: the IC50 in data set [2] was 0.94 µM; in data set [3] it was above 60 µM; in data set [4], 1.27 µM. The compound further registered an AUC in data set [6] of 316 µM·h. This compound had a half-life in data set [7] of 6.3 h.

Consider `COc1ccc(Sc2c(C#N)[nH]c3cc(S(C)(=O)=O)ccc23)c(Cl)c1`, for which the IC50 in data set [2] is 0.33 µM; in data set [3], 8.1 µM; in data set [4], 1.09 µM.

As for `COC(=O)c1[nH]c2cc(S(C)(=O)=O)ccc2c1Sc1ccc(F)cc1`, the IC50 in data set [2] was 0.8 µM; in data set [3] it was 9.3 µM; in data set [4] it was 1.1 µM.

In the case of `Cc1[nH]c2cc(S(C)(=O)=O)ccc2c1[S+]([O-])c1ccc(F)cc1` (centres undefined), in data set [2], the IC50 was above 40 µM.

`COc1ccc(Sc2c(C)[nH]c3cc(S(C)(=O)=O)ccc23)cc1`: the IC50 in data set [1] is 9 µM; in data set [2], 0.47 µM; in data set [3], 18 µM; in data set [4] it was 4.8 µM.

Regarding `CC(=O)OCc1[nH]c2cc(S(C)(=O)=O)ccc2c1Sc1ccccc1Cl`, in data set [2], the IC50 is above 40 µM.

As for `Cc1[nH]c2cc(S(C)(=O)=O)ccc2c1Cc1ccc(F)cc1`, the 50% inhibitory concentration (IC50) in data set [1] is above 40 µM; in data set [2], 0.08 µM; in data set [3] it was 63.9 µM; in data set [4], 11.3 µM.

In turn, `CNC(=O)c1[nH]c2cc(S(C)(=O)=O)ccc2c1Sc1ccc(F)cc1F` gave an IC50 in data set [2] above 40 µM.

As for `Cc1[nH]c2cc(S(C)(=O)=O)ccc2c1Cc1ccccc1Cl`, the IC50 is 0.07 µM in data set [2], above 40 µM in data set [8], 118 µM in data set [3] and 5.5 µM in data set [4].

For `CS(=O)(=O)c1ccc2c(Sc3ccc(F)cc3)c(C(=O)O)[nH]c2c1`, the IC50 in data set [2] was above 40 µM.
